Data on 15 compounds can be found in patent EP0378285A1, “Substituted alkenes, processes for their preparation and their use as pesticides” (priority 1989, dated 1990).

Holding throughout (assay type): in vivo
In data set [1] the test system is brown rice-hoppers (Niliparvata lugens Stal). Description: Use Example B: activity in prophylactic treatment of leaves against brown rice-hoppers. Conditions: 48 h; for mortality at 0.1 %: read-out: activity. From the text: Activity in prophylactic treatment of leaves against brown rice-hoppers (Niliparvata lugens Stal)
Rice seedlings (Oryzae sativa L.) in the two leaf stage (about 10 per polystyrene pot of size 6.5 x 6.5 cm) were either untreated or […] until dripping wet, with an aqueous preparation containing 0.1 % of active material. After drying the sprayed leaves, a transparent cylinder was placed over each pot and through an opening, about 30 brown rice-hoppers (Niliparvata lugens) in the 4-5 stage, anaesthetised with carbon dioxide, were introduced into each pot. After closing the opening with a fine mesh screen, the pots were kept for 2 days at 28° C and 16 hours/day of light in the glasshouse, the amount of dead hoppers was determined. The percentage mortality was then estimated and the activity calculated using Abbott's method in comparison with the untreated controls.

In data set [2] the test system is corn rootworm (Diabrotica undecimpunctata). As to the kind of experiment: Use Example D: activity against eggs/larvae of the corn rootworm. Conditions: 168 h; for activity: corn rootworm, in vivo; for mortality at 0.1 %: Diabrotica undecimpunctata, aqueous emulsion 0.1%, 0.2 ml pipetted into soil, 7 days at 25 C, death of eggs or newly hatched larvae. The protocol:
Activity against eggs/larvae of the corn rootworm (Diabrotica undecimpunctata)
The compounds of the invention were made up as aqueous emulsions at a concentration of 0.1%. Into the soil in polystyrene petri dishes, containing maize seedlings (1 seedling/dish) and ca. 50 eggs of the corn rootworm (Diabrotica undecimpunctata) were pipetted 0.2 ml of these preparations. The closed dishes were left at 25 C under extended daylight conditions for 7 days. The criterion for judging the activity was the death of eggs or newly hatched larvae at the end of the test.

For another data set, the system named is Aphis fabae. Description: Activity in prophylactic treatment of leaf discs against Aphis fabae. Conditions: 48 h; for mortality at 0.1 %: Aphis fabae, foliar, 0.1% aqueous preparation, field bean leaf discs infested with wingless stages, 2 days at 25 C, percentage mortality, Abbott's method. The protocol: From the primary leaf of field beans (Phaseolus vulgaris nanus Aschers.), 24 mm diameter discs were cut. Some of these were treated with a 0.1% aqueous preparations of compounds of the invention and these along side untreated discs were placed on filter papers with the underside of the leaves turned upwards. After drying the test pieces, they were each infested with wingless stages of Aphis fabae (approx 100 per leaf piece). The experiment was replicated 3 times. The leaves were kept on wet filter papers for 2 days at 25 C and 16 hours light per day. The percentage mortality was then estimated and the activity calculated using Abbott's method in comparison with the untreated controls.

Data set [3] concerns two spotted mite (Tetranychus urticae Koch). As to the kind of experiment: Use Example C: activity in the prophylactic treatment of feed against the two spotted mite. Conditions: foliar, 0.1 % aqueous preparation, field bean leaf discs, adults and eggs counted after 3 days at 25 C, larvae after a further 7 days, Abbott's method. As for the experimental part: Activity in the prophylactic treatment of feed against the two spotted mite (Tetranychus urticae Koch)
From the primary leaf of field beans (Phaseolus vulgaris nanus Aschers.) 14 mm diameter discs were cut. Some of these were treated with a 0.1 % aqueous preparations of compounds of the invention and these along side untreated discs were placed on filter papers with the underside of the leaves turned upwards. After drying the test pieces, they were each infested with six adult female Tetranychus urticae and maintained for 3 days at 25 C and 16 hours light per day. The experiment was replicated 4 times. Dead and alive adults were then counted and removed. Similarly the number of eggs laid were counted. After a further 7 days, the number of living larvae were counted, the activity calculated using Abbott's method in comparison with the untreated controls.

Molecules are shown by their SMILES.

For `C=C(C)C(C)(C)CCCc1cccc(Oc2ccccc2)c1` [Example 1, 6-(3-Phenoxyphenyl)-2,3,3,-trimethyl-1-hexene], the activity is on record as at least 80% in data set [1] (brown rice-hopper, in vivo) and 80-100% in data set [2].
As for `CC(C)(COCc1ccc(F)c(Oc2ccccc2)c1)C1=CCCCC1` [Example 2, 2-(Cyclohexen-1-yl)-2-methyl-1-(4-fluoro-3-phenoxybenzyloxy)propane], the mortality at 0.1 % was at least 80% in data set [1], at least 80% in the data set on Aphis fabae and 80 to 100% in data set [2].
Regarding `C=C(Br)C(C)(C)COCc1cccc(Oc2ccccc2)c1` [Example 7, 2-bromo-3,3-dimethyl-4-(3-phenoxy-benzyloxy)-1-butene], the mortality at 0.1 % in data set [3] was 80 to 100%; in the data set on Aphis fabae, at least 80%; in data set [2], 80 to 100%.
Consider `C=C(c1ccccc1)C(C)(C)COCc1ccc(F)c(Oc2ccccc2)c1` [Example 14, 3,3-dimethyl-4-(4-fluoro-3-phenoxy-benzyloxy)-2-phenyl-1-butene], for which the mortality at 0.1 % in data set [1] is at least 80%.
On to `C=C(c1ccccc1)C(C)(C)COCc1cccc(-c2ccccc2)c1C` [Example 15, 3,3-dimethyl-4-(2-methyl-3-phenyl-benzyloxy)-2-phenyl-1-butene], for which, in data set [3], the mortality at 0.1 % was in the range of 80 to 100%.
In the case of `C=C(C)C(C)(C)COCc1cccc(Oc2ccccc2)n1` [Example 17, 4-(6-phenoxypyridin-2-ylmethoxy)-2,3,3-trimethyl-1-butene], the mortality at 0.1 % in data set [1] is at least 80%; in data set [2], 80 to 100%.
As for `C=C(C)C(C)(C)CCCc1cccc(Oc2ccccc2)n1` [Example 18, 6-(6-phenoxypyridin-2-yl)-2,3,3-trimethyl-1-hexene], the mortality at 0.1 % is at least 80% in data set [1], 80 to 100% in data set [3], at least 80% in the data set on Aphis fabae and 80 to 100% in data set [2].
In the case of `C=C(C)C(C)(C)COCc1cccc(Oc2ccc(Cl)cc2)c1` [Example 21, 4-[3-(4-chlorophenoxy)benzyloxy]-2,3,3-trimethyl-1-butene], the mortality at 0.1 % was at least 80% in data set [1], 80 to 100% in data set [3], at least 80% with Aphis fabae and 80 to 100% in data set [2].
Take `C=C(C)C(C)(C)COCc1cccc(Oc2cccc(C(F)(F)F)c2)c1` [Example 24, 4-[3-(3-trifluoromethylphenoxy)-benzyloxy]-2,3,3-trimethyl-1-butene]: the mortality at 0.1 % in data set [1] is at least 80%.
As to `C=C(C(C)C)C(C)(C)COCc1cccc(Oc2ccccc2)c1` [Example 25, 3-methylene-5-(3-phenoxy-benzyloxy)-2,4,4-trimethylpentane], the mortality at 0.1 % in data set [1] is at least 80%.
As to `C=C(C(C)C)C(C)(C)COCc1ccc(F)c(Oc2ccccc2)c1` [Example 26], the activity in the data set on Aphis fabae (aphis fabae, in vivo) was at least 80%; in data set [2] it was 80-100%.
Consider `CC(C)(COCc1ccc(F)c(Oc2ccccc2)c1)C1=CCOCC1` [Example 44, 1-(4-fluoro-3-phenoxybenzyloxy)-2-methyl-2-(4-oxacyclohexen-1-yl)propane], for which the mortality at 0.1 % in data set [1] is at least 80%.
With `C=C(C)C1(COCc2ccc(F)c(Oc3ccccc3)c2)CC1` [Example 51, 2-(4-fluoro-3-phenoxybenzyloxy-methyl)-2-isopropenylcyclopropane], the mortality at 0.1 % in data set [1] was at least 80%; in the data set on Aphis fabae it was at least 80%; in data set [2], 80 to 100%.
In the case of `C=C(I)C(C)(C)COCc1ccc(F)c(Oc2ccccc2)c1` [Example 60, 3,3-dimethyl-2-iodo-4-(4-fluoro-3-phenoxybenzyloxy)-1-butene], the mortality at 0.1 % was at least 80% in data set [1], 80 to 100% in data set [3] and at least 80% with Aphis fabae.
Turning to `C=C(c1ccccc1)C(C)(C)COCc1c(F)c(F)c(F)c(F)c1F` [Example 61, 3,3-dimethyl-4-(2,3,4,5,6-pentafluoro-benzyloxy)-2-phenyl-1-butene], the mortality at 0.1 % in data set [3] is 80 to 100%.
